Experimental findings from patent US20040242678A1, “Apolipo protein e secretion promoters” (priority 2001, published 2004) are described below.

The test system of assay [1] is foamed C57BL/6J mouse-derived macrophages. As to the kind of experiment: ApoE secretion-promoting effect in foamed mouse peritoneal macrophages (Western blotting of supernatants). It counts as cell-based. The note with it: BO-653 added at 3 and 10 μmol/L, 24 hours of culture, anti-mouse ApoE antibody, FIG. 1. How it is done:
(§1) 4.05 w/v % thioglycollate-elicited intraperitoneally exuded cells were prepared from C57BL/6J and ApoE-deficient mice. The cells were inoculated on 12-well plate at 1.0×10^6 cells/well. The cells were cultured at 37° C. under 5 vol % CO2. After 3 hours of culture, the culture medium was changed to a fresh one to remove inadhesive cells, leaving mouse-peritoneal macrophages in each of the wells. Next day, the mouse-peritoneal macrophages were cultured in a medium containing 50 μg of protein per mL of acetylated LDL for 24 hours to form foam cells.
(§2) To the wells containing the foamed C57BL/6J mouse-derived macrophages, 4,6-di-t-butyl-2,2-dipentyl-5-hydroxy-2,3-dihydrobenzofuran (BO-653) was added to final concentrations of 0, 3 and 10 μmol/L. After 24 hours of culture, the supernatants were collected to prepare samples for SDS-PAGE.
The samples were subjected to 10 w/v % SDS-PAGE. Following the SDS-PAGE, the bands were transferred onto nitrocellulose papers using semi-drying method and blocked with TBS containing 10 w/v % skim milk and 0.1 vol % Tween-20. Rabbit anti-mouse ApoE-antibody (#K23100R, BIODESIGN) and peroxidase-labeled anti-rabbit IgG antibody (#7071-1, Cell Signaling TECHNOLOGY) were used as the first and secondary antibodies, respectively. ApoE was detected using chemoluminescence method (PIERCE).
A general note: In western blotting, separated proteins are transferred to a membrane and probed.

The test system of another assay is C57BL/6J mice. Put plainly: ApoE increasing effect in mouse serum (SDS-PAGE of lipoprotein-containing fractions). It counts as in vivo. As to conditions: high fat diet containing 0.65% BO-653 for 5 weeks versus high fat diet with no BO-653, FIG. 2. The protocol:
Seven-week-old C57BL/6J mice were divided into first group of three and second group of four. The animals of the first and second groups were fed a high fat diet containing no BO-653 and 0.65% BO-653, respectively. After 5 weeks of diet initiation, the animals were anesthetized with ether and their blood was individually drawn from vena cava descendens. Serum samples were prepared from the drawn blood and 100 μL of each of the samples was placed into a tube. To the tube, 900 μL of sodium bromide solution having 1.256 density was added, and the tube was centrifuged in TL-100 desk type ultracentrifuge at 100,000 rpm for 20 hours using TLA-100.2 rotor. Lipoprotein-containing fraction thus obtained was collected and treated with 10 w/v % trichloroacetic acid solution. The precipitate was collected and dissolved into 80 μL of solution for SDS-PAGE. 10 μL of the solution was subjected to 15 w/v % SDS-PAGE and the gels were stained with Coomassie brilliant blue. By comparing the bands with molecular weight markers, ApoE was identified.

The subject of assay [2] is foamed C57BL/6J mouse-derived macrophages. As to the kind of experiment: Intracellular cholesterol-removing effect in foamed macrophages (enzymatic total cholesterol measurement). It counts as cell-based. The note with it: for Cholesterol Reduction (%) Means: 24 hours, relative to the vehicle (0 μmol/L = 100.0). How it is done: as §1, §2
On the other hand, the foamed macrophages which were cultured in the presence of BO-653 and harvested at the same time as the collection of the supernatants were extracted with a mixed solvent of hexane/2-propanol (3:2 v/v) to obtain lipids. Then, the total amount of cholesterol in the lipids was measured using the enzymatic method described by Yoshiki Kawabe et al., “Oxidation-Induced Aggregation of Rabbit Low-Density Lipoprotein by Azo Initiator”, Achieves of Biochemistry and Biophysics 310, 489-496 (1994). We regarded the total amount of cholesterol as intracellular cholesterol content of the macrophages.

Turning to `CCCCCC1(CCCCC)Cc2c(cc(C(C)(C)C)c(O)c2C(C)(C)C)O1` [BO-653, 4,6-di-t-butyl-2,2-dipentyl-5-hydroxy-2,3-dihydrobenzofuran], the “saccharified-ApoE expression in culture supernatant” value in assay [1] is reported as “increased saccharified-ApoE expression”. Further, the “ApoE production in serum lipoprotein-containing fraction” value with C57BL/6J mice is recorded as “increased ApoE production”. Moreover, the “Cholesterol Reduction (%) Means” value is reported as 132.6% in assay [2] (BO-653 3 μmol/L) and 145.9% in assay [2] (BO-653 10 μmol/L). The “intracellular cholesterol content of macrophages” value in assay [2] (treatment with BO-653, 24 hours, result in words) was “decrease in intracellular cholesterol content”.
